{
  "source": "patent US20130303509A1",
  "about": "“NAMPT INHIBITORS” (AbbVie Inc., priority 2012, published 2013)",
  "data": [
    {"test_system": "PC3 cells", "test": "NAMPT Cell Proliferation Assay", "format": "cell-based", "settings": "Homo sapiens, PC-3, 120 h, 5 days incubation, cell viability by Cell Titer Glo", "procedure": "NAMPT Cell Proliferation Assay\nPC3 cells were seeded in 96-well black plates (Corning #3904) at 500 cells)Owell in 90 µl of RPMI media containing 10% heat-inactivated FBS and incubated overnight at 37° C. and 5% CO2 to allow cells to attach to wells. The following day, test compounds were serially diluted in neat DMSO to 1000× final concentrations prior to dilution with RPMI media to 10× and 1% DMSO. […] of the 10× compounds were then transferred to wells containing cells to produce a dose response of 10-fold dilutions from […] to 1×10^−[…]. Cells were incubated for 5 days at 37° C. and 5% CO2, then cell viability was measured using Cell Titer Glo reagent (Promega #G7571). Percent inhibition values were calculated and fitted to a sigmoidal dose response curves using Assay Explorer software to determine IC50s.", "units": {"IC50": "nM"}, "values": [
      {"smiles": "O=C(Nc1ccc(OC2CCN(C(=O)CC3CCOCC3)CC2)cc1)C1CN(c2cccnc2)C1", "note": "[Example 1, 1-(pyridin-3-yl)-N-(4-{[1-(tetrahydro-2H-pyran-4-ylacetyl)piperidin-4-yl]oxy}phenyl)azetidine-3-carboxamide]", "IC50": 6.56},
      {"smiles": "CC(C)(O)C(=O)N1CCC(c2ccc(NC(=O)C3CN(c4cccnc4C#N)C3)cc2)CC1", "note": "[Example 2, 1-(2-cyanopyridin-3-yl)-N-{4-[1-(2-hydroxy-2-methylpropanoyl)piperidin-4-yl]phenyl}azetidine-3-carboxamide]", "IC50": "> 10000"},
      {"smiles": "O=C(Nc1ccc(OC2CCN(C(=O)CC3CCOCC3)CC2)cc1)C1CN(c2cccnc2C(F)(F)F)C1", "note": "[Example 3, N-(4-{[1-(tetrahydro-2H-pyran-4-ylacetyl)piperidin-4-yl]oxy}phenyl)-1-[2-(trifluoromethyl)pyridin-3-yl]azetidine-3-carboxamide]", "IC50": 7330},
      {"smiles": "Cc1ncccc1N1CC(C(=O)Nc2ccc(OC3CCN(C(=O)CC4CCOCC4)CC3)cc2)C1", "note": "[Example 4, 1-(2-methylpyridin-3-yl)-N-(4-{[1-(tetrahydro-2H-pyran-4-ylacetyl)piperidin-4-yl]oxy}phenyl)azetidine-3-carboxamide]", "IC50": 112},
      {"smiles": "Cc1ccncc1N1CC(C(=O)Nc2ccc(OC3CCN(C(=O)CC4CCOCC4)CC3)cc2)C1", "note": "[Example 5, 1-(4-methylpyridin-3-yl)-N-(4-{[1-(tetrahydro-2H-pyran-4-ylacetyl)piperidin-4-yl]oxy}phenyl)azetidine-3-carboxamide]", "IC50": 6.75},
      {"smiles": "O=C(Nc1ccc(OC2CCN(C(=O)CC3CCOCC3)CC2)cc1)C1CN(c2cnccc2F)C1", "note": "[Example 6, 1-(4-fluoropyridin-3-yl)-N-(4-{[1-(tetrahydro-2H-pyran-4-ylacetyl)piperidin-4-yl]oxy}phenyl)azetidine-3-carboxamide]", "IC50": 67.7},
      {"smiles": "O=C(Nc1ccc(OC2CCN(C(=O)CC3CCOCC3)CC2)cc1)C1CN(c2cnccc2C(F)(F)F)C1", "note": "[Example 7, N-(4-{[1-(tetrahydro-2H-pyran-4-ylacetyl)piperidin-4-yl]oxy}phenyl)-1-[4-(trifluoromethyl)pyridin-3-yl]azetidine-3-carboxamide]", "IC50": 876},
      {"smiles": "CC(C)(C)OC(=O)N1CCC(Oc2ccc(NC(=O)[C@H]3CCN(c4cccnc4)C3)cc2)CC1", "note": "[Example 8, tert-butyl 4-[4-({[(3S)-1-(pyridin-3-yl)pyrrolidin-3-yl]carbonyl}amino)phenoxy]piperidine-1-carboxylate]", "IC50": 70.8},
      {"smiles": "CC(C)(C)OC(=O)N1CCC(Oc2ccc(NC(=O)[C@@H]3CCN(c4cccnc4)C3)cc2)CC1", "note": "[Example 9, tert-butyl 4-[4-({[(3R)-1-(pyridin-3-yl)pyrrolidin-3-yl]carbonyl}amino)phenoxy]piperidine-1-carboxylate]", "IC50": 739},
      {"smiles": "O=C(Nc1ccc(C2CCN(C(=O)[C@@H]3CCCO3)CC2)cc1)C1CN(c2cccnc2)C1", "note": "[Example 10, 1-(pyridin-3-yl)-N-(4-{1-[(2S)-tetrahydrofuran-2-ylcarbonyl]piperidin-4-yl}phenyl)azetidine-3-carboxamide]", "IC50": 1.84},
      {"smiles": "O=C(Nc1ccc(OC2CCN(C(=O)CC3CCOCC3)CC2)cc1)[C@H]1CCN(c2cccnc2)C1", "note": "[Example 11, (3S)-1-(pyridin-3-yl)-N-(4-{[1-(tetrahydro-2H-pyran-4-ylacetyl)piperidin-4-yl]oxy}phenyl)pyrrolidine-3-carboxamide]", "IC50": 22.7},
      {"smiles": "CC(C)C(=O)N1CCC(Oc2ccc(NC(=O)[C@H]3CCN(c4cccnc4)C3)cc2)CC1", "note": "[Example 12, (3S)-N-(4-{[1-(2-methylpropanoyl)piperidin-4-yl]oxy}phenyl)-1-(pyridin-3-yl)pyrrolidine-3-carboxamide]", "IC50": 84.4},
      {"smiles": "O=C(Nc1ccc(OC2CCN(C(=O)[C@@H]3CCCO3)CC2)cc1)[C@H]1CCN(c2cccnc2)C1", "note": "[Example 13, (3S)-1-(pyridin-3-yl)-N-[4-({1-[(2S)-tetrahydrofuran-2-ylcarbonyl]piperidin-4-yl}oxy)phenyl]pyrrolidine-3-carboxamide]", "IC50": 79.1},
      {"smiles": "O=C(Nc1ccc(OC2CCN(C(=O)[C@H]3CCCO3)CC2)cc1)[C@H]1CCN(c2cccnc2)C1", "note": "[Example 14, (3S)-1-(pyridin-3-yl)-N-[4-({1-[(2R)-tetrahydrofuran-2-ylcarbonyl]piperidin-4-yl}oxy)phenyl]pyrrolidine-3-carboxamide]", "IC50": 54.8},
      {"smiles": "O=C(Nc1ccc(OC2CCN(C(=O)C3CCOC3)CC2)cc1)[C@H]1CCN(c2cccnc2)C1", "note": "(stereo partly drawn) [Example 15, (3S)-1-(pyridin-3-yl)-N-(4-{[1-(tetrahydrofuran-3-ylcarbonyl)piperidin-4-yl]oxy}phenyl)pyrrolidine-3-carboxamide]", "IC50": 34.7},
      {"smiles": "O=C(Nc1ccc(OC2CCN(C(=O)CC3CC3)CC2)cc1)[C@H]1CCN(c2cccnc2)C1", "note": "[Example 16, (3S)-N-(4-{[1-(cyclopropylacetyl)piperidin-4-yl]oxy}phenyl)-1-(pyridin-3-yl)pyrrolidine-3-carboxamide]", "IC50": 92.6},
      {"smiles": "CC(C)(O)C(=O)N1CCC(Oc2ccc(NC(=O)[C@H]3CCN(c4cccnc4)C3)cc2)CC1", "note": "[Example 17, (3S)-N-(4-{[1-(2-hydroxy-2-methylpropanoyl)piperidin-4-yl]oxy}phenyl)-1-(pyridin-3-yl)pyrrolidine-3-carboxamide]", "IC50": 93.7},
      {"smiles": "O=C(Nc1ccc(OC2CCN(C(=O)CC(F)(F)F)CC2)cc1)[C@H]1CCN(c2cccnc2)C1", "note": "[Example 18, (3S)-1-(pyridin-3-yl)-N-(4-{[1-(3,3,3-trifluoropropanoyl)piperidin-4-yl]oxy}phenyl)pyrrolidine-3-carboxamide]", "IC50": 148},
      {"smiles": "CC[C@H](C)C(=O)N1CCC(Oc2ccc(NC(=O)[C@H]3CCN(c4cccnc4)C3)cc2)CC1", "note": "[Example 19, (3S)-N-[4-({1-[(2S)-2-methylbutanoyl]piperidin-4-yl}oxy)phenyl]-1-(pyridin-3-yl)pyrrolidine-3-carboxamide]", "IC50": 56.4},
      {"smiles": "CC(C)(O)C(=O)N1CCC(c2ccc(NC(=O)C3CN(c4cccnc4)C3)cc2)CC1", "note": "[Example 20, N-{4-[1-(2-hydroxy-2-methylpropanoyl)piperidin-4-yl]phenyl}-1-(pyridin-3-yl)azetidine-3-carboxamide]", "IC50": 0.28},
      {"smiles": "O=C(NC1CN(c2cccnc2)C1)c1ccc(OC2CCN(C(=O)CC3CCOCC3)CC2)cc1", "note": "[Example 21, N-[1-(pyridin-3-yl)azetidin-3-yl]-4-{[1-(tetrahydro-2H-pyran-4-ylacetyl)piperidin-4-yl]oxy}benzamide]", "IC50": 150},
      {"smiles": "CC[C@H](C)C(=O)N1CCC(c2ccc(NC(=O)C3CN(c4cccnc4)C3)cc2)CC1", "note": "[Example 22, N-(4-{1-[(2S)-2-methylbutanoyl]piperidin-4-yl}phenyl)-1-(pyridin-3-yl)azetidine-3-carboxamide]", "IC50": 1.25},
      {"smiles": "CC[C@H](C)C(=O)N1CCC(Oc2ccc(C(=O)NC3CN(c4cccnc4)C3)cc2)CC1", "note": "[Example 23, 4-({1-[(2S)-2-methylbutanoyl]piperidin-4-yl}oxy)-N-[1-(pyridin-3-yl)azetidin-3-yl]benzamide]", "IC50": 72.5},
      {"smiles": "CC(C)(O)C(=O)N1CCC(Oc2ccc(C(=O)NC3CN(c4cccnc4)C3)cc2)CC1", "note": "[Example 24, 4-{[1-(2-hydroxy-2-methylpropanoyl)piperidin-4-yl]oxy}-N-[1-(pyridin-3-yl)azetidin-3-yl]benzamide]", "IC50": 169},
      {"smiles": "O=C(Nc1ccc(C2CCN(C(=O)CC3CCOCC3)CC2)cc1)C1CN(c2cccnc2)C1", "note": "[Example 25, 1-(pyridin-3-yl)-N-{4-[1-(tetrahydro-2H-pyran-4-ylacetyl)piperidin-4-yl]phenyl}azetidine-3-carboxamide]", "IC50": 1.41},
      {"smiles": "O=C(Nc1ccc(C2CCN(C(=O)c3ccccc3)CC2)cc1)C1CN(c2cccnc2)C1", "note": "[Example 26, N-[4-(1-benzoylpiperidin-4-yl)phenyl]-1-(pyridin-3-yl)azetidine-3-carboxamide]", "IC50": 0.682},
      {"smiles": "CC(C)(C)OC(=O)N1CCC(Oc2ccc(C(=O)N[C@H]3CCN(c4cccnc4)C3)cc2)CC1", "note": "[Example 27, tert-butyl 4-(4-{[(3S)-1-(pyridin-3-yl)pyrrolidin-3-yl]carbamoyl}phenoxy)piperidine-1-carboxylate]", "IC50": "> 10000"},
      {"smiles": "CC(C)(C)OC(=O)N1CCC(Oc2ccc(C(=O)N[C@@H]3CCN(c4cccnc4)C3)cc2)CC1", "note": "[Example 28, tert-butyl 4-(4-{[(3R)-1-(pyridin-3-yl)pyrrolidin-3-yl]carbamoyl}phenoxy)piperidine-1-carboxylate]", "IC50": "> 10000"},
      {"smiles": "Cc1ncccc1N1CC(C(=O)Nc2ccc(C3CCN(C(=O)C(C)C)CC3)cc2)C1", "note": "[Example 29, N-{4-[1-(2-methylpropanoyl)piperidin-4-yl]phenyl}-1-(2-methylpyridin-3-yl)azetidine-3-carboxamide]", "IC50": 135},
      {"smiles": "CC(C)C(=O)N1CCC(c2ccc(NC(=O)C3CN(c4cccnc4)C3)cc2)CC1", "note": "[Example 30, N-{4-[1-(2-methylpropanoyl)piperidin-4-yl]phenyl}-1-(pyridin-3-yl)azetidine-3-carboxamide]", "IC50": 1.97},
      {"smiles": "CC(C)(O)C(=O)N1CCC(Oc2ccc(NC(=O)C3CN(c4cccnc4)C3)cc2)CC1", "note": "[Example 31, N-(4-{[1-(2-hydroxy-2-methylpropanoyl)piperidin-4-yl]oxy}phenyl)-1-(pyridin-3-yl)azetidine-3-carboxamide]", "IC50": 6.9},
      {"smiles": "CC[C@H](C)C(=O)N1CCC(Oc2ccc(NC(=O)C3CN(c4cccnc4)C3)cc2)CC1", "note": "[Example 32, N-[4-({1-[(2S)-2-methylbutanoyl]piperidin-4-yl}oxy)phenyl]-1-(pyridin-3-yl)azetidine-3-carboxamide]", "IC50": 6.54},
      {"smiles": "O=C(Nc1ccc(OC2CCN(C(=O)[C@@H]3CCCO3)CC2)cc1)C1CN(c2cccnc2)C1", "note": "[Example 33, 1-(pyridin-3-yl)-N-[4-({1-[(2S)-tetrahydrofuran-2-ylcarbonyl]piperidin-4-yl}oxy)phenyl]azetidine-3-carboxamide]", "IC50": 3.66}
    ]}
  ]
}
